Measured values reported in article PMC3781056, “New Pyrazolopyrimidine Inhibitors of Protein Kinase D as Potent Anticancer Agents for Prostate Cancer Cells” (PLoS ONE, 2013).
Read-outs that look alike come from different tables or passages of the source.

Legend:
PKD1 = target: T1, PKD1 (Homo sapiens, UniProt Q15139); test: In vitro radiometric PKD1 screening assay at 1 µM; type: biochemical
T1 construct: GST; purchased Enzo Life sciences (Farmingdale, NY)
T1 sequence (Q15139 1-912): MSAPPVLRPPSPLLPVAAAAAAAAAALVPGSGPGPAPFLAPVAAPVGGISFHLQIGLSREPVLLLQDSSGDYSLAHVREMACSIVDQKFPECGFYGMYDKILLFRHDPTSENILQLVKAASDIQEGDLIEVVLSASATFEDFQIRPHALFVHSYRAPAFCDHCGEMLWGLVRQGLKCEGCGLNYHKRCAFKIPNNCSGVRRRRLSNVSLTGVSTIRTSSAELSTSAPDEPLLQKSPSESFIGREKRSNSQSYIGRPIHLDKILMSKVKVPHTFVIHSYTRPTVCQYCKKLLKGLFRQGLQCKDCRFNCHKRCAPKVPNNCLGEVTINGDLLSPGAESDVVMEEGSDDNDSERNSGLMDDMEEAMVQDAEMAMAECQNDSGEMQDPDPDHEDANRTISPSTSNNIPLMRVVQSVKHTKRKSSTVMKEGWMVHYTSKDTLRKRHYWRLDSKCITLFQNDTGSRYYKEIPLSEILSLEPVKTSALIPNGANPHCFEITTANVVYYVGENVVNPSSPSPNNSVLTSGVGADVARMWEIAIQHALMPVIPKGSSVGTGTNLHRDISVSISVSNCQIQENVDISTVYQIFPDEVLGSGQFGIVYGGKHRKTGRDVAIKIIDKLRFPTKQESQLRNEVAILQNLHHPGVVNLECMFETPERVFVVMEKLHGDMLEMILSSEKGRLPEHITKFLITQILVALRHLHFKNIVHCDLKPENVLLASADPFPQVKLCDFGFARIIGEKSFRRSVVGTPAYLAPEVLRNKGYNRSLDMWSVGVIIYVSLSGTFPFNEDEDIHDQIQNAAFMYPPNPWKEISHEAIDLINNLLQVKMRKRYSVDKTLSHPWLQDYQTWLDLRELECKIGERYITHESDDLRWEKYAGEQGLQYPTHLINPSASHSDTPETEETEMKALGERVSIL
Method: Phosphorylation of HDAC5 was detected in a kinase reaction having 1 µCi [γ-^32P] […] The reaction was incubated at 30°C for 10 minutes and 25 µL of the reaction was spotted on Whatman P81 filter paper. The filter paper was washed 3 times in 0.5% phosphoric acid, air dried and counted using Beckman LS6500 multipurpose scintillation counter. Percent PKD1 inhibition was graphed using GraphPad Prism software 5.0.

Recombinant human PKD3 = target: T2, Recombinant human PKD3 (Homo sapiens, UniProt O94806); test: Radiometric PKD kinase assay, 10-point IC50; type: biochemical
T2 sequence (O94806 1-890): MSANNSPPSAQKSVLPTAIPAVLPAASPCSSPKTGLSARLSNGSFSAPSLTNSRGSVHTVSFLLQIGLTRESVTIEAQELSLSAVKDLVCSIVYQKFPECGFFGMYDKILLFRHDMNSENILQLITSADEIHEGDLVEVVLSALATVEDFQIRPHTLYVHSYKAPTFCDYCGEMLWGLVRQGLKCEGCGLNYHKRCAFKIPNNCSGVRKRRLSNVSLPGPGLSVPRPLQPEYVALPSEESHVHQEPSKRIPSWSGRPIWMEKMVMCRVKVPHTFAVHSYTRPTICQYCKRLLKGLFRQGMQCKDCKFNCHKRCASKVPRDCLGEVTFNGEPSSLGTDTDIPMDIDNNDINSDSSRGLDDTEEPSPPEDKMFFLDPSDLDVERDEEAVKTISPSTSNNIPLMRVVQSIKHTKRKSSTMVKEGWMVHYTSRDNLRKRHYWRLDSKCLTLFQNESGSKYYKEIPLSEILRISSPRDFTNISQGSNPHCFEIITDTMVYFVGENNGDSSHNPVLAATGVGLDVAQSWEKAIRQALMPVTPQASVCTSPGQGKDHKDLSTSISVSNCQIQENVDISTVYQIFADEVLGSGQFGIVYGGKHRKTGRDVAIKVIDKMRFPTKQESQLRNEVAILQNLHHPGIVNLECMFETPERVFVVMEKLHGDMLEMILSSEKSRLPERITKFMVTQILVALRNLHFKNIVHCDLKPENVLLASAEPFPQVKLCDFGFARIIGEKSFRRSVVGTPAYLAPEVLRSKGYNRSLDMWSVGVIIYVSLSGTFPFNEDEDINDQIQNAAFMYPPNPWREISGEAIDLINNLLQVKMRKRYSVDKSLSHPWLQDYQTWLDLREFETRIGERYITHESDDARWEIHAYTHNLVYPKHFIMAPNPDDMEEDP
Method: Recombinant human PKD1, 2, or 3 proteins were incubated in a mixture containing a peptide substrate derived from a PKD substrate, HDAC-5, and 10 different concentrations of the two compounds.
The IC50 values were calculated as the mean ±SEM of at least three independent experiments with triplicate determinations at each concentration of drug in each experiment. The data were plotted as a function of drug concentration and a representative graph is shown.

PC3 cells = test: Wound healing assay (cell migration); type: cell-based; details: PC3, 30 µM, 22 h after wounding; control completely closed
Method: A.1-NA- PP1 blocked prostate cancer cell migration. PC3 cells were grown to confluence in 6-well plates. Monolayer was wounded and imaged immediately (0 h). […] Percentage wound healing was calculated as the percent of healed wound area as compared to the original wound. […] After 20 h, noninvasive cells were removed and invasive cells were fixed in 100% methanol, stained in 0.4% hematoxylin solution, and photographed. The number of cells that invaded the Matrigel matrix was determined by cell counts in 6 fields relative to the number of cells that migrated through the control insert. Percentage invasion was calculated as the percent of the cells invaded through Matrigel inserts vs. the total cells migrated through the control inserts. C. […] DU145 cells were infected with null, PKD1, and PKD3 adenoviruses (Adv-null, Adv-PKD1, and Adv-PKD3) at 100 MOI. After 24 h, cells were replated in control and Matrigel inserts, and a Matrigel invasion assay was conducted as described above. The overexpression of PKD1 and PKD3 was confirmed by Western blotting analysis (images below the graphs). […]
PC3 or DU145 cells were grown to confluence in 6-well plates. […] The wound gap was measured, and % wound healing was calculated. The average % wound healing was determined based on at least 6 measurements of the wound gap.

| SMILES | % PKD1 Inhibition (PKD1; 1 µM, targeted kinase inhibitor library screen, relative to DMSO) [%] | IC50 (Recombinant human PKD3; mean ± SEM, read-out: IC50 PKD3) [nM] | IC50 (Recombinant human PKD3; value in the figure, representative graph, read-out: PKD3 IC50) [nM] | inhibition at 1 µM (PKD1; read-out: % PKD1 Inhibition) [%] | inhibition at 1 µM (PKD1; read-out: inhibition of PKD1 activity) [%] | IC50 (Recombinant human PKD3) [nM] | IC50 (Recombinant human PKD3; PKD3 IC50, value printed in the figure, representative graph) [nM] | wounded area remaining open (PC3 cells) [%] |
| --- | --- | --- | --- | --- | --- | --- | --- | --- |
| O=C(c1ccc(Nc2nccc(-c3cc4ccccc4s3)n2)cc1)N1CCC(N2CCCC2)CC1 [IKK-16, reference compound] | 67 | 99.7 | 97 |  |  |  |  |  |
| CC(C)(C)n1nc(-c2cccc3ccccc23)c2c(N)ncnc21 [Compound 1-NA-PP1, 1-(t-Butyl)-3-(naphthalen-1-yl)-1H-pyrazolo[3,4-d]pyrimidin-4-amine] |  |  |  | 77 | 80 | 109 | 104 | 88.6 |
